In patent US9221767B2, “Substituted phthalazinones as rock inhibitors” (BRISTOL-MYERS SQUIBB COMPANY, priority 2013, dated 2015):
Read-outs that look alike come from different tables or passages of the source.

What was measured:
ROCK1 = ROCK1 (Homo sapiens (Human), UniProt Q13464); assay: ROCK assay (LabChip peptide phosphorylation), ROCK1; format: biochemical; conditions: 5 μM ATP, 1.5 μM peptide substrate
Protocol: (§1) The effectiveness of compounds of the present invention as ROCK inhibitors can be determined in a 30 μL assay containing 20 mM HEPES, pH 7.5, 20 mM MgCl2, 0.015% Brij-35, 4 mM DTT, 5 μM ATP and 1.5 μM peptide substrate (FITC-AHA-[…]-OH). Compounds were dissolved in DMSO so that the final concentration of DMSO was <2%, and the reaction was initiated with Rho kinase variants. After incubation, the reaction was terminated by the addition of EDTA and the phosphorylated and non-phosphorylated peptides separated using a LabChip 3000 Reader (Caliper Life Sciences). […] Compounds were tested in dose-response format, and the inhibition of kinase activity was calculated at each concentration of compound. The inhibition data were fit using a curve-fitting program to determine the IC50; i.e., the concentration of compound required to inhibit 50% of kinase activity.”

ROCK2 = ROCK2 (Homo sapiens (Human), UniProt O75116); assay: ROCK assay (LabChip peptide phosphorylation), ROCK2; format: biochemical; conditions: 5 μM ATP, 1.5 μM peptide substrate
Protocol: as §1

[1] = system: IL-1 beta-induced coronary stenosis; conditions: long term treatment; cited from earlier work
rat stroke model = conditions: in vivo; cited from earlier work
[2] = system: spontaneously hypertensive rat, renal hypertensive rat and deoxycortisone acetate salt hypertensive rat models; conditions: cited from earlier work
[3] = system: neointimal formation in rats; conditions: cited from earlier work
Dahl salt-sensitive rats = conditions: rat, in vivo; cited from earlier work

Chain of ROCK1 (Q13464 whole entry, species assumed): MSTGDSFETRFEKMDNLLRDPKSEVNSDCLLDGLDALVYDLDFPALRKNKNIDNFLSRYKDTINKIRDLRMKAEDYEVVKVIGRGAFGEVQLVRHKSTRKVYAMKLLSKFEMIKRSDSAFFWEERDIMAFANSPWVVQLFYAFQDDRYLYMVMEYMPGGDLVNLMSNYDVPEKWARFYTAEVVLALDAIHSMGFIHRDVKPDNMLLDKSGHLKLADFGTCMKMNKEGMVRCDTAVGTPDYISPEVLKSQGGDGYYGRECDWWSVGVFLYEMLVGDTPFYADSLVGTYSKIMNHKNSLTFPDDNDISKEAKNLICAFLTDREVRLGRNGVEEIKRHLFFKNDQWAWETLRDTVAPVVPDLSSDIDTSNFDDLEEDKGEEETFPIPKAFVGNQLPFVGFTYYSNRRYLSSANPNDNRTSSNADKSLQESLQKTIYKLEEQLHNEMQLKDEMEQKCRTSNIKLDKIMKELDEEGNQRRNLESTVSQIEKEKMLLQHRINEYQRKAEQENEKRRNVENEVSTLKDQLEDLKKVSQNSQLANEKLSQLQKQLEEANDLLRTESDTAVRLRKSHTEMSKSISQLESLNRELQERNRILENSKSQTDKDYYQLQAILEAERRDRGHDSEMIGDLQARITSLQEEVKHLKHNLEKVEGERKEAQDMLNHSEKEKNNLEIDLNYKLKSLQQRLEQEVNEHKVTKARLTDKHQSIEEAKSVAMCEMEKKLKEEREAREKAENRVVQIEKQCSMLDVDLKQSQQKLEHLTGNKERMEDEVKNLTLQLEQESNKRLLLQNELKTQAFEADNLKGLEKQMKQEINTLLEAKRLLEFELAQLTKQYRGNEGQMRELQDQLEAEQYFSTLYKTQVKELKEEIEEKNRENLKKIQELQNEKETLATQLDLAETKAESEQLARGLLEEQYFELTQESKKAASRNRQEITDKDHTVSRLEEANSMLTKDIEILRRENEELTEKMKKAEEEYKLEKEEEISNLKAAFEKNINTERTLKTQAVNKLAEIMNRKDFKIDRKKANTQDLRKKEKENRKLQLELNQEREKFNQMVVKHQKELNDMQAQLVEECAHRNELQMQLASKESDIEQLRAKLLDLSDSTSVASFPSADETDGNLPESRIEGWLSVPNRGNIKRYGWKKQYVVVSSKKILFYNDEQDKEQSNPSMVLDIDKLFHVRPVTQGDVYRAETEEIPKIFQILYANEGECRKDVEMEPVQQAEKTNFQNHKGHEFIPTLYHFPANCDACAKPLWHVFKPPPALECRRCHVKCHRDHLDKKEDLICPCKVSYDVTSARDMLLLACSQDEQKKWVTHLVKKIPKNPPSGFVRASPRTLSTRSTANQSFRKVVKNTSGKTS
Chain of ROCK2 (O75116 whole entry, species assumed): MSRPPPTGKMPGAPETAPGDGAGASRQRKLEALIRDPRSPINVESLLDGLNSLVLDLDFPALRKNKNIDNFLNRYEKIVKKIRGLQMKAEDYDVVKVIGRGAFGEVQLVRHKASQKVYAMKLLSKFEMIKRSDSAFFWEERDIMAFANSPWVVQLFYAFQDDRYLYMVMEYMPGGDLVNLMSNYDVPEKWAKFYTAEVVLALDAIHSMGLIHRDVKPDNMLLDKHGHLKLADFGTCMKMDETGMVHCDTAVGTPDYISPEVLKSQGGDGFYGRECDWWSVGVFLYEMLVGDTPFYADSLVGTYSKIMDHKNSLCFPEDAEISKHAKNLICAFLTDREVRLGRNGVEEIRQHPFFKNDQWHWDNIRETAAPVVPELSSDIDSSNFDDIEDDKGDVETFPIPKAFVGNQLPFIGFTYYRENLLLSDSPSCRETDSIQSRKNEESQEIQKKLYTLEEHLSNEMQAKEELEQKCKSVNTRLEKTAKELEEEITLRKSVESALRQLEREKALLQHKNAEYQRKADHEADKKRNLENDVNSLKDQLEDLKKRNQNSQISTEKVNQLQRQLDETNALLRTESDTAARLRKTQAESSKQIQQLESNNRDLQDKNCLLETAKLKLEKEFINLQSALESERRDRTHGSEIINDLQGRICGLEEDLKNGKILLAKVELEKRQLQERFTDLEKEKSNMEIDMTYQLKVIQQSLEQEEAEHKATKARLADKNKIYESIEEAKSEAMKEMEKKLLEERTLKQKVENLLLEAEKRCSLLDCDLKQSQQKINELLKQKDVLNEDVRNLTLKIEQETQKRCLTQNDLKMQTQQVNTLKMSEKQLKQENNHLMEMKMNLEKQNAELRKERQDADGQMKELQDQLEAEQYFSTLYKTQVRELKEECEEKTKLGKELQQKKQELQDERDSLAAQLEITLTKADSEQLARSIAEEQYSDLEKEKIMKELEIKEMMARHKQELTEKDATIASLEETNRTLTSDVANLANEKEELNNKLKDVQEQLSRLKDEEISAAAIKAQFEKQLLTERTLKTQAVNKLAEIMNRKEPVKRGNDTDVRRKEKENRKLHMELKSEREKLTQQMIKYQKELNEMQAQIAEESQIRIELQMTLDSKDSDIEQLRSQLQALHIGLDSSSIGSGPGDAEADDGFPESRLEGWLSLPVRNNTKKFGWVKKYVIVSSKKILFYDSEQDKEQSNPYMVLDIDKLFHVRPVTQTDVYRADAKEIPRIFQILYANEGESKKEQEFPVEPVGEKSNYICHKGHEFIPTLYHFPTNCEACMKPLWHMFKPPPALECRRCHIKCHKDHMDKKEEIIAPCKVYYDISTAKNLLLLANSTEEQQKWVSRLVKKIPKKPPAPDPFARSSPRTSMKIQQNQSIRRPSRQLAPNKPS

Row | Structure (SMILES) | IC50 (ROCK1) [nM] | IC50 (ROCK2) [nM] | other results
1 | COC[C@@H]1CCCN1C(=O)Cc1ccc(-c2n[nH]c(=O)c3ccccc23)cc1 [Example 13] | 16200 | 9730 | –
2 | O=C(Nc1ccc(-c2n[nH]c(=O)c3ccccc23)cc1)N1CCc2ccccc21 [Example 76, N-(4-(4-oxo-3,4-dihydrophthalazin-1-yl)phenyl)indoline-1-carboxamide] | 20 | 1.2 | –
3 | O=S(=O)(c1cccc2cnccc12)N1CCCNCC1 [fasudil] | – | – | coronary constrictive remodeling [1]: promote a regression of coronary constrictive remodeling; coronary stenosis [1]: progressively reduce coronary stenosis; infarct size (rat stroke model): reduce; neurologic deficit (rat stroke model): reduce
4 | Cn1ccnc1C(=O)Nc1ccc(-c2n[nH]c(=O)c3ccccc23)cc1 [Example 52] | 544 | 225 | –
5 | O=C(Cc1ccc(-c2n[nH]c(=O)c3ccccc23)cc1)NC1CCC1 [Example 19] | 6480 | 5830 | –
6 | O=C(Nc1ccc(-c2n[nH]c(=O)c3ccccc23)cc1)c1ccc(N2CCCCC2)cc1 [Example 61] | 49 | 2.1 | –
7 | CCOc1ccc2c(c1)N(C(=O)Cc1ccc(-c3n[nH]c(=O)c4ccccc34)cc1)CC2 [Example 33] | 23 | 1.2 | –
8 | O=C(Nc1ccc(-c2n[nH]c(=O)c3ccccc23)cc1)c1ccccc1 [Example 67] | 175 | 14 | –
9 | O=C(Nc1ccc(-c2n[nH]c(=O)c3ccccc23)cc1)c1csc(-c2ccc(C(F)(F)F)cc2)n1 [Example 48] | 670 | 39 | –
10 | C[C@@H](N)[C@H]1CC[C@H](C(=O)Nc2ccncc2)CC1 [Example Y-27632, Y-27632] | – | – | blood pressure ([2]; control rats): only a minor effect on blood pressure; blood pressure ([2]; three rat models of hypertension): significantly decrease blood pressure; neointimal formation [3]: inhibited neointimal formation; ventricular hypertrophy, fibrosis and function (Dahl salt-sensitive rats): improve ventricular hypertrophy, fibrosis and function
11 | O=C(Oc1ccc(-c2n[nH]c(=O)c3ccccc23)cc1)N1CCC(c2ccccc2)C1 (stereo not shown) [Example 69, 4-(4-oxo-3,4-dihydrophthalazin-1-yl)phenyl 3-phenylpyrrolidine-1-carboxylate] | 50000 | 894 | –
12 | O=C(Cc1ccc(-c2n[nH]c(=O)c3ccccc23)cc1)Nc1nc2ccccc2o1 [Example 10] | 729 | 17 | –
13 | CN(C)c1ccc(C(=O)Nc2ccc(-c3n[nH]c(=O)c4ccccc34)cc2)cc1 [Example 58] | 35 | 0.3 | –
14 | O=C(Cc1ccc(-c2n[nH]c(=O)c3ccccc23)cc1)N1CCCc2ccccc21 [Example 34] | 11900 | 553 | –
15 | O=C(Cc1ccc(-c2n[nH]c(=O)c3ccccc23)cc1)N1Cc2ccc(F)cc2C1 [Example 2, 4-(4-(2-(5-fluoroisoindolin-2-yl)-2-oxoethyl)phenyl)phthalazin-1(2H)-one] | 679 | 30 | –
